Reference: patent publication US20060111341A1, “Use of galanthamine and the derivatives thereof in the production of medicaments” (priority 2003, published 2006)

What was measured:
Butyrylcholinesterase = Butyrylcholinesterase (Homo sapiens, UniProt P06276); experiment: biochemical
Acetylcholinesterase = Acetylcholinesterase (Homo sapiens, UniProt P22303); experiment: biochemical
Chain of Acetylcholinesterase (P22303 32-614): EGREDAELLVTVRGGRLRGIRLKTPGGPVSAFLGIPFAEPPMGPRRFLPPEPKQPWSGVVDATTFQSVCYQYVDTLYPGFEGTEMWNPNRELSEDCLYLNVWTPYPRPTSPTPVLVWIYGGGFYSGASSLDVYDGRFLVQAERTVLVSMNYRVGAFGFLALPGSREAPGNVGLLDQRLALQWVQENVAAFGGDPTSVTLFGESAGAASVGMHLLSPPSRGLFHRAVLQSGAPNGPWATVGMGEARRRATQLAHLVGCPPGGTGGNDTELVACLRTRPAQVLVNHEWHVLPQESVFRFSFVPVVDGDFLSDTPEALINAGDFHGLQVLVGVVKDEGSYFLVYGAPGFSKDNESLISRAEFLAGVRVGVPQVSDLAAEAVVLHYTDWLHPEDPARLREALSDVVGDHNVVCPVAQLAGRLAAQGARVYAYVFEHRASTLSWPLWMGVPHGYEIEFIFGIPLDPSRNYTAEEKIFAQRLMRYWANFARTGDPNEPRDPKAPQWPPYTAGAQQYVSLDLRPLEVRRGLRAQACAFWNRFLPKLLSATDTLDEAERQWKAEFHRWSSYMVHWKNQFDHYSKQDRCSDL

Chain of Butyrylcholinesterase (P06276 29-602): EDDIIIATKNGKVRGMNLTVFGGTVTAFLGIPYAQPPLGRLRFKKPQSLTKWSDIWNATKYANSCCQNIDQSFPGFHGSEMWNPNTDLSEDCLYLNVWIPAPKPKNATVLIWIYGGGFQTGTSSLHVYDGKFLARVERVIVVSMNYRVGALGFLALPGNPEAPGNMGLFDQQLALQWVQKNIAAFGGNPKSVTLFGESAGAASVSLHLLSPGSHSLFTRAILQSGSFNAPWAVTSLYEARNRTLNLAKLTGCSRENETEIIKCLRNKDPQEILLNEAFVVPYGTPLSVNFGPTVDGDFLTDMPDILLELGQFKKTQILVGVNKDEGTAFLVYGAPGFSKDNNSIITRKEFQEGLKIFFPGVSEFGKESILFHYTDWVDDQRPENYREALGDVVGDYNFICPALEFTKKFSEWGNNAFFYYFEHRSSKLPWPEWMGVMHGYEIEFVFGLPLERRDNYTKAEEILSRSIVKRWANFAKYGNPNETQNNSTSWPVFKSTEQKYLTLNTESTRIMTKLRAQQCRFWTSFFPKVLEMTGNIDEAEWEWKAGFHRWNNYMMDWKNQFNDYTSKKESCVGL

COc1ccc2c3c1OC1C[C@@H](O)C=CC31CCN(C(=O)NC1CCCCC1)C2 (mixture of isomers) [Nr 83]
IC50 (Butyrylcholinesterase): > 100 µM

COc1ccc2c3c1OC1C[C@@H](O)C=CC31CCN(CCC#N)C2 (mixture of isomers) [Nr 77]
IC50 (Butyrylcholinesterase): > 100 µM

COc1ccc2c3c1O[C@H]1C[C@@H](O)C=C[C@@]31CCN(CCCCN1C(=O)c3ccccc3S1(=O)=O)C2 [Nr 161]
IC50 (Acetylcholinesterase): 0.022 µM | IC50 (Butyrylcholinesterase): 1.5 µM

C=CCNC(=S)N1CCC23C=C[C@H](O)CC2Oc2c(OC)ccc(c23)C1 (mixture of isomers) [Nr 91]
IC50 (Acetylcholinesterase): 21 µM | IC50 (Butyrylcholinesterase): > 100 µM

COc1ccc2c3c1O[C@H]1C[C@@H](OC(=S)Nc4ccccc4)C=C[C@@]31CCN(C)C2 [Nr 179]
IC50 (Acetylcholinesterase): 51 µM | IC50 (Butyrylcholinesterase): 30 µM

COc1ccc2c3c1O[C@H]1C[C@@H](O)C=C[C@@]31CCN(C)[C@@H]2C#N [Nr 132]
IC50 (Acetylcholinesterase): 1.2 µM

COc1ccc2c3c1OC1C[C@@H](O)C=CC31CCN(C(=O)NC(C)(C)C)C2 (mixture of isomers) [Nr 82]
IC50 (Acetylcholinesterase): 4.8 µM | IC50 (Butyrylcholinesterase): > 100 µM

COc1ccc2c3c1O[C@H]1C[C@@H](O)C=C[C@@]31CC[N+](C)(CCCCl)C2 (stereo partly shown) [Nr 59]
IC50 (Acetylcholinesterase): 0.35 µM

COc1ccc2c3c1O[C@@H]1C[C@H](O)C=C[C@]31CC[N+](C)(CCN1CCOCC1)C2 (stereo partly shown) [Nr 12]
IC50 (Acetylcholinesterase): 57 µM | IC50 (Butyrylcholinesterase): 13 µM

COc1ccc2c3c1O[C@H]1C[C@@H](O)C=C[C@@]31CCN(C(=O)Nc1ccccc1C(F)(F)F)C2 [Nr 111]
IC50 (Acetylcholinesterase): 30 µM | IC50 (Butyrylcholinesterase): > 100 µM

COc1ccc2c3c1OC1C[C@@H](O)C=CC31CCN(C(=O)Nc1ccccc1)C2 (mixture of isomers) [Nr 76]
IC50 (Acetylcholinesterase): 70 µM | IC50 (Butyrylcholinesterase): > 100 µM

COc1ccc2c3c1OC1C[C@@H](O)C=CC31CCN(C(=O)Nc1ccc(Cl)cc1)C2 (mixture of isomers) [Nr 92]
IC50 (Acetylcholinesterase): 24 µM | IC50 (Butyrylcholinesterase): > 100 µM

COc1ccc2c3c1O[C@H]1C[C@@H](O)C=C[C@@]31CCN(CC1CC1)C2 [Nr 131]
IC50 (Acetylcholinesterase): 0.7 µM | IC50 (Butyrylcholinesterase): 1.2 µM

CCCCNC(=O)O[C@H]1C=C[C@@]23CCN(C)Cc4ccc(OC)c(c42)O[C@H]3C1 [Nr 1]
IC50 (Acetylcholinesterase): > 100 µM | IC50 (Butyrylcholinesterase): 4.8 µM

COc1cc(Br)c2c3c1OC1C[C@@H](O)C=CC31CCN(CC#N)C2 (mixture of isomers) [Nr 19]
IC50 (Acetylcholinesterase): > 100 µM | IC50 (Butyrylcholinesterase): 70 µM

COc1ccc2c3c1O[C@H]1C[C@@H](O)C=C[C@@]31CCN(CCC(=O)O)C2 [Nr 120]
IC50 (Acetylcholinesterase): 42 µM | IC50 (Butyrylcholinesterase): 40 µM

COc1ccc2c3c1O[C@@H]1C[C@H](OC(=S)Nc4ccccc4)C=C[C@]31CCN(C)C2 [Nr 181]
IC50 (Acetylcholinesterase): 35 µM

COc1ccc2c3c1O[C@H]1C[C@@H](O)C=C[C@@]31CC[N+](C)(CCN1CCCC1)C2 (stereo partly shown) [Nr 7]
IC50 (Acetylcholinesterase): 2 µM

COc1ccc2c3c1O[C@H]1C[C@@H](O)C=C[C@@]31CCN(CCCN1CCCCC1)C2 [Nr 128]
IC50 (Acetylcholinesterase): 0.3 µM | IC50 (Butyrylcholinesterase): 1.5 µM

CCCN1CC[C@@]23C=C[C@H](O)C[C@@H]2Oc2c(OC)ccc(c23)C1 [Nr 155]
IC50 (Acetylcholinesterase): 0.3 µM | IC50 (Butyrylcholinesterase): 1.5 µM

COc1ccc2c3c1O[C@H]1C[C@@H](O)C=C[C@@]31CC[N+](C)(CCN1CCCCC1)C2 (stereo partly shown) [Nr 52]
IC50 (Acetylcholinesterase): 4 µM

C#CC[N+]1(C)CCC23C=C[C@H](O)CC2Oc2c(OC)cc(C)c(c23)C1 (mixture of isomers) [Nr 68]
IC50 (Acetylcholinesterase): 78 µM | IC50 (Butyrylcholinesterase): 2.5 µM

COc1ccc2c3c1O[C@H]1C[C@@H](O)C=C[C@@]31CC[N+](C)(CC1CC1)C2 (stereo partly shown) [Nr 53]
IC50 (Acetylcholinesterase): 1.2 µM | IC50 (Butyrylcholinesterase): 3.6 µM

COc1ccc2c3c1OC1C[C@@H](O)C=CC31CCN(C(=O)Nc1ccc3ccccc3c1)C2 (mixture of isomers) [Nr 88]
IC50 (Acetylcholinesterase): 36 µM | IC50 (Butyrylcholinesterase): > 100 µM

COc1cc(Br)c2c3c1OC1C[C@@H](O)C=CC31CCN(Cc1ccccc1)C2 (mixture of isomers) [Nr 38]
IC50 (Acetylcholinesterase): > 100 µM | IC50 (Butyrylcholinesterase): 0.24 µM

COc1cc(C)c2c3c1OC1C[C@@H](O)C=CC31CCN(CCN1CCOCC1)C2 (mixture of isomers) [Nr 65]
IC50 (Acetylcholinesterase): > 100 µM | IC50 (Butyrylcholinesterase): 5.2 µM

COc1ccc2c3c1O[C@H]1C[C@@H](OC(=O)N[C@@H](C)c4ccccc4)C=C[C@@]31CCN(C)C2 [Nr 3]
IC50 (Butyrylcholinesterase): 75 µM

COc1ccc2c3c1OC1C[C@@H](O)C=CC31CCN(C(=O)CCl)C2 (mixture of isomers) [Nr 98]
IC50 (Butyrylcholinesterase): 20 µM

COc1ccc2c3c1OC1C[C@@H](O)C=CC31CCN(C=C(C#N)C#N)C2 (mixture of isomers) [Nr 80]
IC50 (Acetylcholinesterase): 28.5 µM | IC50 (Butyrylcholinesterase): > 100 µM

COc1ccc2c3c1O[C@H]1C[C@@H](O)C=C[C@@]31CCN(C1CCN(C(=O)c3ccccc3)CC1)C2 [Nr 148]
IC50 (Acetylcholinesterase): 24 µM | IC50 (Butyrylcholinesterase): 3 µM

COc1ccc2c3c1O[C@H]1C[C@@H](O)C=C[C@@]31CCN(C(=S)Oc1ccccc1)C2 [Nr 149]
IC50 (Acetylcholinesterase): 7.2 µM | IC50 (Butyrylcholinesterase): > 100 µM

COc1ccc2c3c1OC1C[C@@H](O)C=CC31CCN(CCC(=O)NC(C)(C)C)C2 (mixture of isomers) [Nr 101]
IC50 (Acetylcholinesterase): 45 µM | IC50 (Butyrylcholinesterase): 26 µM

COc1cc(C)c2c3c1OC1C[C@@H](O)C=CC31CCN(C)C2 (mixture of isomers) [Nr 63]
IC50 (Acetylcholinesterase): > 100 µM | IC50 (Butyrylcholinesterase): 17 µM

COc1ccc2c3c1OC1C[C@@H](O)C=CC31CCN(c1nccc(Cl)n1)C2 (mixture of isomers) [Nr 89]
IC50 (Acetylcholinesterase): 66 µM | IC50 (Butyrylcholinesterase): > 100 µM

COc1ccc2c3c1O[C@H]1C[C@@H](O)C=C[C@]31CC[N+](C)(CCN1CCOCC1)C2 (stereo partly shown) [Nr 199]
IC50 (Acetylcholinesterase): 5 µM

COc1cc(Br)c2c3c1O[C@@H]1C[C@H](O)C=C[C@]31CCN(CCCN1CCN(C)CC1)C2 [Nr 273]
IC50 (Butyrylcholinesterase): 31 µM

COc1cc(Br)c2c3c1OC1C[C@@H](O)C=CC31CCNC2 (mixture of isomers) [Nr 93]
IC50 (Acetylcholinesterase): 5 µM

COc1ccc2c3c1O[C@@H]1C[C@H](OC(=O)N[C@H](C)c4ccccc4)C=C[C@]31CCN(C)C2 [Nr 180]
IC50 (Acetylcholinesterase): 85 µM

COc1ccc2c3c1O[C@H]1C[C@@H](O)C=C[C@@]31CC[N+](C)(CCCN1CCCCC1)C2 (stereo partly shown) [Nr 4]
IC50 (Acetylcholinesterase): 6 µM

COc1ccc2c3c1O[C@H]1C[C@@H](O)C=C[C@@]31CCN(CCCCCCN1C(=O)c3ccccc3S1(=O)=O)C2 [Nr 164]
IC50 (Acetylcholinesterase): 0.043 µM

COc1ccc2c3c1O[C@H]1C[C@@H](OC(=O)N[C@H](C)c4ccccc4)C=C[C@@]31CCN(C)C2 [Nr 2]
IC50 (Butyrylcholinesterase): 70 µM

COc1ccc2c3c1O[C@H]1C[C@@H](O)C=C[C@@]31CC[N+](C)(CC(N)=O)C2 (stereo partly shown) [Nr 51]
IC50 (Acetylcholinesterase): 3.1 µM

COc1ccc2c3c1O[C@H]1C[C@@H](O)C=C[C@@]31CCN(C(=O)OCC1c3ccccc3-c3ccccc31)C2 [Nr 134]
IC50 (Acetylcholinesterase): 40 µM

COc1ccc2c3c1OC1C/C(=N/N)C=CC31CCN(C)C2 (racemic) [Nr 28]
IC50 (Acetylcholinesterase): 40 µM

COc1cc(Br)c2c3c1OC1C[C@@H](O)C=CC31CCN(CCN1CCOCC1)C2 (mixture of isomers) [Nr 25]
IC50 (Acetylcholinesterase): 3 µM

COc1cc(Br)c2c(c1O)C13C=CC(=O)CC1N(CC3)C2 (racemic) [Nr 13]
IC50 (Acetylcholinesterase): 5 µM

COc1ccc2c3c1O[C@H]1C[C@@H](O)C=C[C@@]31CCN(CCCN(C)C)C2 (racemic) [Nr 74]
IC50 (Butyrylcholinesterase): 10 µM

C#CCN1CC[C@@]23C=C[C@H](O)C[C@@H]2Oc2c(OC)ccc(c23)C1 [Nr 156]
IC50 (Acetylcholinesterase): 32 µM

COc1ccc2c3c1O[C@@H]1C[C@H](O)C=C[C@]31CCN(C(=O)NC(C)(C)C)C2 [Nr 125]
IC50 (Acetylcholinesterase): 93 µM

COc1ccc2c3c1O[C@H]1C[C@@H](O)C=C[C@@]31CCN(CCC(=O)OC(C)(C)C)C2 [Nr 116]
IC50 (Butyrylcholinesterase): 4 µM

COc1ccc2c3c1O[C@H]1C[C@H](OC(=O)CNC(=O)OC(C)(C)C)C=C[C@@]31CCN(C)C2 [Nr 6]
IC50 (Acetylcholinesterase): 45 µM

COc1cc(Br)c2c3c1O[C@H]1C[C@@H](O)C=C[C@@]31CCNC2 [Nr 29]
IC50 (Acetylcholinesterase): 3 µM

COc1cc(Br)c2c3c1OC1C[C@@H](O)C=CC31CCN(C(=O)CCN1CCCCC1)C2 (mixture of isomers) [Nr 43]
IC50 (Acetylcholinesterase): 0.2 µM

COc1cc(Br)c2c3c1O[C@@H]1C[C@H](O)C=C[C@]31CCN(C(=O)CN1CCN(C)CC1)C2 [Nr 272]
IC50 (Acetylcholinesterase): 89 µM

COc1ccc2c3c1O[C@@H]1C[C@H](O)C=C[C@]31CCN(CCCN(C)C)C2 [Nr 151]
IC50 (Butyrylcholinesterase): 67 µM

COc1ccc2c3c1OC1C[C@@H](O)C=CC31CCN(CCN1CCOCC1)C2 (mixture of isomers) [Nr 36]
IC50 (Butyrylcholinesterase): 7 µM

COc1ccc2c(c1)CC(CCCCN1CC[C@@]34C=C[C@H](O)C[C@@H]3Oc3c(OC)ccc(c34)C1)C2=O (stereo partly shown) [Nr 168]
IC50 (Acetylcholinesterase): 0.024 µM

COc1cc(C)c2c3c1O[C@H]1C[C@@H](O)C=C[C@@]31CCN(C)C2C (stereo partly shown) [Nr 146]
IC50 (Acetylcholinesterase): 83 µM

COc1cc(Br)c2c(c1O)C13CCC(O)CC1N(CC3)C2 (racemic) [Nr 205]
IC50 (Acetylcholinesterase): 50 µM

CCOC(=O)CN1CCC23C=C[C@H](O)CC2Oc2c(OC)cc(Br)c(c23)C1 (mixture of isomers) [Nr 26]
IC50 (Acetylcholinesterase): 20 µM

CCOC(=O)CN1CCC23C=C[C@H](O)CC2Oc2c(OC)ccc(c23)C1 (mixture of isomers) [Nr 100]
IC50 (Butyrylcholinesterase): 90 µM

COc1ccc2c3c1O[C@H]1C[C@@H](O)C=C[C@@]31CCN(CCCCCN1C(=O)c3ccccc3S1(=O)=O)C2 [Nr 163]
IC50 (Acetylcholinesterase): 0.022 µM

COc1ccc2c3c1O[C@H]1C[C@@H](O)C=C[C@@]31CCN(CCCN1CCCCC1)C2 [Nr 162]
IC50 (Acetylcholinesterase): 0.36 µM

COc1ccc2c3c1O[C@H]1C[C@@H](O)C=C[C@@]31CC[N+](C)(CCN(C)C)C2 (stereo partly shown) [Nr 8]
IC50 (Acetylcholinesterase): 8 µM

COc1cc2c(cc1OC)C(=O)C(CCCCCN1CC[C@@]34C=C[C@H](O)C[C@@H]3Oc3c(OC)ccc(c34)C1)C2 (stereo partly shown) [Nr 166]
IC50 (Acetylcholinesterase): 0.023 µM

COc1ccc2c3c1O[C@H]1C[C@@H](O)C=C[C@@]31CCN(CCCCN1C(=O)c3ccccc3S1(=O)=O)C2 [Nr 165]
IC50 (Acetylcholinesterase): 0.027 µM

COc1ccc2c3c1O[C@H]1C[C@@H](O)C=C[C@@]31CCN(CC#N)C2 [Nr 136]
IC50 (Acetylcholinesterase): 15 µM

CCOC(=O)CCN1CCC23C=C[C@H](O)CC2Oc2c(OC)ccc(c23)C1 (mixture of isomers) [Nr 78]
IC50 (Butyrylcholinesterase): 17 µM

COc1cc(Br)c2c3c1O[C@H]1C[C@@H](O)C=C[C@@]31CCN(C)C2 [Nr 30]
IC50 (Acetylcholinesterase): 4 µM

CCNC(=O)N1CCC23C=C[C@H](O)CC2Oc2c(OC)ccc(c23)C1 (mixture of isomers) [Nr 87]
IC50 (Butyrylcholinesterase): > 100 µM

COc1cc(Br)c2c3c1OC1CC(=O)C=CC31CCN(C)C2 (racemic) [Nr 11]
IC50 (Acetylcholinesterase): 50 µM

CCCCNC(=S)O[C@@H]1C=C[C@]23CCN(C)Cc4ccc(OC)c(c42)O[C@@H]3C1 [Nr 182]
IC50 (Acetylcholinesterase): 85 µM
